The values below come from PMC4674063, “Uncovering the Molecular Mechanism of Actions between Pharmaceuticals and Proteins on the AD Network” (PLoS ONE, 2015).

Like-named read-outs stand apart in the source and are kept apart here.

In one data set the target is NEP (Homo sapiens, UniProt P08473). Nature of the data set: Wet-lab test of inhibition of NEP. It is filed as biochemical. Set-up: inhibition rate / quenching efficiency: concentration or dose not given beside the values.
The target of a further data set is T1, IDE (Homo sapiens, UniProt P14735).
T1 sequence (P14735 1-1019): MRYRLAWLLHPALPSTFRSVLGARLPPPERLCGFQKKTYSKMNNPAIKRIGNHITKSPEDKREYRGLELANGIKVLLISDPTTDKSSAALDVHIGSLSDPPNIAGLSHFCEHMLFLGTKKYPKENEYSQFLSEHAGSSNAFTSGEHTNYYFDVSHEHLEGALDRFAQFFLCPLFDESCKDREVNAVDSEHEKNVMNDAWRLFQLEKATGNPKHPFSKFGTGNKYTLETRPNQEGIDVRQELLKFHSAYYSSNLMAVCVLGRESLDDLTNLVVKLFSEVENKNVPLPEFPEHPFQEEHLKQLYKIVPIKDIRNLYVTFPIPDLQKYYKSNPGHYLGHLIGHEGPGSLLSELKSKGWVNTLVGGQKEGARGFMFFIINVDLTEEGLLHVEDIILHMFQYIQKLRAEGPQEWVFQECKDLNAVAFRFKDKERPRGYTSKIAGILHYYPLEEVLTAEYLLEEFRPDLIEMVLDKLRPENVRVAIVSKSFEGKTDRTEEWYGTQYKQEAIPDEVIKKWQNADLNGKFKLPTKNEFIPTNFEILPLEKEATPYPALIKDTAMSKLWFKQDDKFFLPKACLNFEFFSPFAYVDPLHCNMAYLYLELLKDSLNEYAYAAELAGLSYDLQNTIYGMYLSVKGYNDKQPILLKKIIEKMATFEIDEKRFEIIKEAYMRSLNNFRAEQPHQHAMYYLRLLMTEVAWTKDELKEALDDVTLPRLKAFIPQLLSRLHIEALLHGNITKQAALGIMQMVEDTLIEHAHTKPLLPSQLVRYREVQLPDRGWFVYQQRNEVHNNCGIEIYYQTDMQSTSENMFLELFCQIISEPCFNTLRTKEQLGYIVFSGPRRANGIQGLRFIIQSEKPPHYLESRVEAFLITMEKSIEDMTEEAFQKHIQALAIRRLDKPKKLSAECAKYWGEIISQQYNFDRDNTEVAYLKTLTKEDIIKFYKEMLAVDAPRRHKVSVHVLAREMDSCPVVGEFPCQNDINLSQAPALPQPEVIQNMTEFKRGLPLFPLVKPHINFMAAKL
Nature of the data set: Wet-lab test of inhibition of IDE. The following applies: for inhibition rate / quenching efficiency / IC50: binding to IDE; for IC50: computed value. It is filed as biochemical.

The conditions of data set [1]: cited from earlier work.
[2] abbreviates: conclusion from both amiloride analogs.

Chain of NEP (P08473 whole entry): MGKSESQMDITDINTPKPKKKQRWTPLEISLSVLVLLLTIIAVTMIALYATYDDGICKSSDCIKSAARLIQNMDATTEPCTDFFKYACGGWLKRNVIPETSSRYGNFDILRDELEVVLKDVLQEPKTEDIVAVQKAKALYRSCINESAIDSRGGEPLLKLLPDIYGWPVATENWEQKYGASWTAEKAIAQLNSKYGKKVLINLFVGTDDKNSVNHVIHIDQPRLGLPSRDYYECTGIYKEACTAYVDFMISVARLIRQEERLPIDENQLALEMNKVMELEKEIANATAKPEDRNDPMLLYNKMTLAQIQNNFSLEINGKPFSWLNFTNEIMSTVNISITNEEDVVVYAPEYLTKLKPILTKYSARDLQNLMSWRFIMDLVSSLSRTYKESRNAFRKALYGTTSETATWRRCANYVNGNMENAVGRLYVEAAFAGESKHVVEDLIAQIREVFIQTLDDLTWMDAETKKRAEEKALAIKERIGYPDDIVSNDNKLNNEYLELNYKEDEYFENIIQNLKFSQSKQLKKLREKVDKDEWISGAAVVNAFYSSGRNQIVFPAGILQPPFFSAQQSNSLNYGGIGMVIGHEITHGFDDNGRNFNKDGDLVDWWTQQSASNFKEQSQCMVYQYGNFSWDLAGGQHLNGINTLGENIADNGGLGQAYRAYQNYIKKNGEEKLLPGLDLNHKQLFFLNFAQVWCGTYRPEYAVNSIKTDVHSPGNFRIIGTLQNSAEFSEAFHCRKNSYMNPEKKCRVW

As to `O=C(O)CNC(=O)C(CS)Cc1ccccc1` (racemic) [DL-Thiophan], the inhibition rate on NEP (binding to NEP) is on record as 102.01%.

Broadly, the IC50 is the concentration needed to halve the response being measured. On to `CN(C)c1nc(N)c(C(=O)N=C(N)N)nc1Cl.Cl` [5-(N,N-Dimethyl) amiloride hydrochloride], for which the inhibition rate on IDE turned out to be 93.57%; at NEP (binding to NEP), 80.96%. Besides, the quenching efficiency at IDE and on NEP (binding to NEP) was 54.77% each time. Moreover, the half-inhibitory concentration (IC50) is 178 µM at IDE and 829 µM at NEP (binding to NEP, computed value).

Regarding `N=C(N)NC(=O)c1nc(Cl)c(N)nc1N` [AMR, Amiloride], the “inhibition of IDE (in words)” value at IDE (setting [2]) is given as “strongly inhibits IDE”. For the same compound, the “inhibition of NEP (in words)” value against NEP (setting [2]) was “weakly inhibits NEP”.

As for `Cl.N=C(N)NC(=O)c1nc(Cl)c(N)nc1N.O.O` [Amiloride HCl dihydrate], at IDE, the inhibition rate was 95.02%, the quenching efficiency is -6.64% and the half-maximal inhibitory concentration (IC50) was 214 µM. On NEP (binding to NEP), the inhibition rate amounted to 65.21% and the quenching efficiency is given as -6.64%.

On to `COc1ccc2c3c1O[C@H]1C[C@@H](O)C=C[C@@]31CCN(C)C2` [GNT, galantamine], for which the “crosses the blood-brain barrier (BBB)” value in data set [1] is “cross the blood-brain barrier”.

For `C/C=C1\[C@H]2C=C(C)C[C@]1(N)c1ccc(=O)[nH]c1C2` [HUP, Huperzine A], the “crosses the blood-brain barrier (BBB)” value in data set [1] (in vivo) is listed as “cross the blood-brain barrier”.

For `OCCN1C[C@H](O)[C@@H](O)[C@H](O)[C@H]1CO` [MIG, Miglitol], the “crosses the BBB” value in data set [1] (ref not given) is reported as “cannot cross BBB”.

As to `NC(=O)C1=CN([C@@H]2O[C@H](COP(=O)(O)OP(=O)(O)OC[C@H]3O[C@@H](n4cnc5c(N)ncnc54)[C@H](O)[C@@H]3O)[C@@H](O)[C@H]2O)C=CC1` [NAI, NADH], in data set [1], the “crosses the BBB” value is “cross the BBB”.

For `Nc1c2c(nc3ccccc13)CCCC2` [THA, tacrine], the “crosses the blood-brain barrier (BBB)” value in data set [1] (in vivo) is on record as “cross the blood-brain barrier”.

As to `Cc1c(C)c2c(c(C)c1O)CC[C@@](C)(CCC[C@H](C)CCC[C@H](C)CCCC(C)C)O2` [VIV, Vitamin E], the “crosses the BBB” value in data set [1] is “cross the BBB”.
